Where two headings read alike, the source gives them in different places. Values belong to the compound of their own block, whether it stands above or below them.
Assays:
[1] = tested on: bone-marrow derived mesenchymal stem cells (MSC); assay: osteogenic differentiation, calcium and DNA assay; assay type: cell-based, human; details: 12.5 μM, calcium content normalized by DNA, versus solvent control
Procedure: (§1) The effect on osteogenic differentiation potential was assessed as previously described. Only the substances that allowed survival of the cells for more than 3 weeks, which is the time needed for mature osteogenic differentiation, were tested. Briefly, osteoblasts and bone-marrow derived mesenchymal stem cells were cultured in a positive solvent control (osteogenic medium with 0.5% DMSO or ethanol background), a negative control (medium without osteogenic supplements) and treated samples (osteogenic medium, 0.5% DMSO or ethanol background and 12.5 μM of test compound) with four repeats per condition. Mesenchymal stem cells and osteoblast cell cultures were harvested after 3 or 5 weeks, respectively, for the calcium and DNA assay.
(§2) Calcium deposition of osteoblasts and mesenchymal stem cells was measured with the Calcium CPC LiquiColor test (Stanbio Laboratory, Boerne, Tex.) as previously described. Briefly, cell cultures were extracted with 5% trichloroacetic acid (500 μl per sample), O-cresolphtalein complex was added, and the calcium content was determined spectrophotometrically at 550 nm. DNA content was determined as previously described. DNA values were used to normalize the calcium content. Four wells per condition were examined, and two samples from each well were taken for each assay.

[2] = tested on: osteoblasts (OB); assay: osteogenic differentiation, calcium and DNA assay; assay type: cell-based, human; details: 12.5 μM, calcium content normalized by DNA, versus solvent control
Procedure: as §1, §2

[3] = tested on: bone-marrow derived mesenchymal stem cells (MSC); assay: metabolic activity, MTT staining; assay type: cell-based; details: 12.5 μM, 6 days treatment
Procedure: (§3) Cell viability of two human primary cell types, namely, osteoblasts (OB) and bone-marrow derived mesenchymal stem cells (MSC) was tested according to the ISO 10993-5 standard, as previously described. Briefly, cells were seeded in 96-well tissue culture test plates (TPP, Switzerland) at 5×10^3 cells/cm^2 in Advanced DMEM cell culture media supplemented with 10% serum, 1× GlutaMAX, 0.05 mg/mL Gentamycin, and were allowed to attach overnight. The next day, the cells were exposed to (i) cell culture medium and medium with the corresponding control (0.5% ethanol or DMSO) (negative controls), (ii) medium with 0.05% phenol (cytotoxic control), and (iii) medium with compounds (12.5 μM) and incubated for 2 h, 48 h and 6 days (8 repeats for each condition). At each time-point the numbers of viable and dead cells were determined directly by trypan blue staining, and indirectly by measuring the metabolic activity with MTT (3-(4,5-dimethylthiazol-2-yl)-2,5-diphenyltetrazolium bromide) staining.
(§4) The medium was removed from the wells and 100 μl of medium, supplemented with 10% serum and 0.5 mg/mL MTT was added to the cells. The cells were incubated overnight at 37° C. and 5% CO2. The next day the medium with MTT was removed and 100 μl acidic isopropanol was added. The cells were then centrifuged at 2300 g and 50 μl of the supernatant was transferred to a new 96-well plate. The absorbance was measured at 570 nm and the background was measured at 660 nm. Four wells per condition were examined.

[4] = tested on: osteoblasts (OB); assay: metabolic activity, MTT staining; assay type: cell-based; details: 12.5 μM, 6 days treatment
Procedure: as §3, §4

[5] = tested on: osteoblasts (OB); assay: mammalian-cell viability assay, trypan blue staining; assay type: cell-based; details: 12.5 μM; for proliferation (in words): 6 days exposure
Procedure: as §3
(§5) The medium was removed from the wells, and 1/3 trypan blue in Dulbecco's modified Eagle's medium (DMEM) was added to the cells, incubated for 3 min, after which trypan blue was removed and DMEM medium was added to the wells. In each of four wells, two microscopy fields were counted for viable (transparent) and dead (blue) cells.

[6] = tested on: C. albicans SC5314 + S. epidermidis; assay: mixed C. albicans/S. epidermidis biofilm assay, selective plating; assay type: cell-based, Candida albicans; Staphylococcus epidermidis; details: for activity at 25 µM: 25 μM (Table 5); for activity at 100 µM: 100 μM (Table 5)
Procedure: The concentrations 25 μM (0.0625% DMSO or ethanol) and 100 μM (0.25% DMSO or ethanol) were tested. After 24 h of incubation at 37° C., biofilms were washed with PBS and fresh medium with or without compounds was added. After further incubation for 48 h at 37° C., the biofilms were washed with PBS after which the cells were re-suspended in 100 μl of PBS by scraping off, sonication (1 min, 45 kHz, USC300-T; VWR, Radnor, Pa., USA) and vigorously pipetting up-and-down. Finally, the biofilm cells were diluted in PBS and plated on YPD agar plates containing 100 mg/L ampicillin and TSA plates containing 25 mg/L amphotericin B, to determine the number of fungal and bacterial CFUs after 2 days of incubation at 37° C., respectively. The percentage of C. albicans SC5314 and S. epidermidis cells was determined relative to the DMSO or ethanol control treatment.

[7] = tested on: C. albicans SC5314; assay: inhibition of C. albicans biofilms, cell titer blue (CTB) quantification; assay type: cell-based, Candida albicans; details: monospecies biofilm; novel compounds: highest concentration tested 100 μM
Procedure: The potential of the compounds to prevent C. albicans SC5314 biofilm formation was assessed using the cell titer blue (CTB) quantification method (26). For the CTB method, an overnight culture of C. albicans SC5314 was washed with PBS and a cell suspension of 10^6 cells/ml (OD600=0.1) was prepared in RPMI 1640 medium (pH 7.0). […] After 16 h of static incubation at 37° C., biofilms were washed and quantified with CTB as described previously.

[8] = tested on: bone-marrow derived mesenchymal stem cells (MSC); assay: mammalian-cell viability assay, trypan blue staining; assay type: cell-based; details: 12.5 μM, 6 days exposure
Procedure: as §3, §5

[9] = tested on: E. coli TG1 + P. aeruginosa PA14; assay: mixed E. coli/P. aeruginosa biofilm assay, crystal violet; assay type: cell-based
Procedure: Overnight cultures of E. coli TG1 and P. aeruginosa PA14, were diluted 1/100 in the same vial of TSB 1/20 to form a mixed culture suspension.

[10] = tested on: E. coli TG1; assay: static peg (Calgary Biofilm Device) anti-biofilm assay, crystal violet and OD600
[11] = C. albicans in mixed biofilm with S. epidermidis, read-out: CFUs % survival C.a.
[12] = S. epidermidis in mixed biofilm with C. albicans, read-out: CFUs % survival Se.
[13] = S. epidermidis in mixed biofilm with C. albicans, read-out: CFUs % survival S.c.

metabolic activity compared to the solvent control (in words) [3]: increased
metabolic activity compared to the solvent control (in words) [4]: increased
Compound: CCCCCCCCn1c(-c2ccc(Br)cc2)cnc1NCC(C)C [Compound 8c, 5-(4-bromophenyl)-N-isobutyl-1-octyl-1H-imidazol-2-amine]
calcium deposition (in words) [1]: induced the calcium deposition
calcium deposition (in words) [2]: induced the calcium deposition
proliferation (in words) [5]: increase in proliferation
cell viability (in words) ([5]; 6 days of exposure, trypan blue): very slightly reduced viability
effect on the C. albicans/S. epidermidis mixture (in words) [6]: only reduced C. albicans
activity at 25 µM [6, 11]: 3.2%
activity at 100 µM [6, 11]: 8.4%
anti-biofilm activity (in words) [7]: not active

Compound: CCCCCCCCn1c(-c2ccccc2)cnc1NC1CCCC1 [Compound 8e, N-cyclopentyl-1-octyl-5-phenyl-1H-imidazol-2-amine]
proliferation (in words) [8]: slightly reduced
proliferation (in words) [5]: slightly reduced
activity at 25 µM [6, 11]: 10%
activity at 100 µM [6, 11]: 2.5%
activity at 100 µM [6, 12]: 0%
inhibition of the mixed biofilm P. aeruginosa/E. coli (in words) [9]: at higher concentrations
anti-biofilm activity (in words) ([10]; biofilm at 37° C.): showed activity
anti-biofilm activity (in words) ([10]; biofilm cells at 25° C.): potent activity

Compound: CCCCCCCCn1c(-c2ccc(Cl)cc2)cnc1NC1CCCC1 [Compound 8f, 5-(4-chlorophenyl)-N-cyclopentyl-1-octyl-1H-imidazol-2-amine]
proliferation (in words) [8]: slightly reduced
activity at 25 µM [6, 11]: 2.9%
activity at 100 µM [6, 11]: 7.2%
activity at 25 µM [6, 13]: 2.5%
activity at 100 µM [6, 12]: 0.3%
inhibition of the mixed biofilm P. aeruginosa/E. coli (in words) [9]: at higher concentrations
anti-biofilm activity (in words) ([10]; biofilm cells at 25° C.): potent activity

metabolic activity compared to the solvent control (in words) [3]: increased
metabolic activity compared to the solvent control (in words) [4]: increased
Compound: CCCCCCCCn1c(-c2ccc(Cl)c(Cl)c2)cnc1NC1CCCC1 [Compound 8h, 5-(3,4-dichlorophenyl)-N-cyclopentyl-1-octyl-1H-imidazol-2-amine]
calcium deposition (in words) [1]: induced the calcium deposition
calcium deposition (in words) [2]: induced the calcium deposition
proliferation (in words) [5]: increase in proliferation
activity at 25 µM [6, 11]: 6.7%
activity at 100 µM [6, 11]: 3.5%
activity at 25 µM [6, 13]: 2%
activity at 100 µM [6, 12]: 2.2%
anti-biofilm activity (in words) [7]: not active
